Experimental data: patent US12595269B2, “Morpholine-like monoamine releasers” (Solvonis Therapeutics Ireland Holdings Limited, priority 2022, dated 2026)

Tested on: MDCKII cells
Assay: Apparent permeability (Papp AB) in MDCKII cells
Format: in vitro ADME, Canine
Settings: MDCKII cells, pH 7.4
Procedure: Methods and Procedure: This study was conducted in compliance with previously described procedures to assure data integrity and adherence to GLP regulations. The experiments described herein were designed to evaluate the apparent permeability (Papp) of test compounds at pH 7.4. Additionally, the MDCKII-MDR1 cell line (Madin-Darby Canine Kidney clone II cell line heterologously expressing the human P-glycoprotein transporter) and mock cell line MDCKII were used to determine whether a compound acted as a P-gp substrate, in the absence and in the presence of the potent P-gp inhibitor. Test control items (digoxin, metoprolol, and atenolol) and control P-gp inhibitor (GF120918) stock solution were prepared in DMSO. Bidirectional assays (Apical to Basolateral [AB] and Basolateral to Apical [BA]) were run, in both the absence and presence of P-gp inhibitor GF120918 in MDCKII-MDR1 and mock cell line MDCKII, using as transport buffer HBSSH at a pH of 7.4 (n=3).
Compounds were tested at a single concentration (i.e. at 3 or 10 μM) at one time point (i.e. 60 min). Alternative concentrations or time-points may also be investigated. As reference compounds, digoxin (P-gp substrate), atenolol (low permeable compound) and metoprolol (high permeable compound) were included at a single concentration (e.g., 10 or 25 μM) and at single time point (e.g., 60 min). Digoxin transport was evaluated in two directions (apical-to-basolateral [AB] and basolateral-to-apical [BA]) in the absence and presence of GF120918 or in mock cells, MDCKII (n=3). Atenolol and metoprolol were only tested in the AB direction in absence of GF120918 or in mock cells, MDCKII (n=3). The integrity of the cell monolayer was evaluated after the permeability experiment using the paracellular permeability marker Lucifer yellow (LY) in the apical to basolateral direction in each well.
MDCKII or MDCKII-MDRI cells cultivated using DMEM (high glucose, GlutaMAX™ supplemented with pyruvate, 10% FBS HI and Pen/Strep) and seeded onto microporous PET (Polyethylene Terephthalate) membranes in HTS 96-Multiwell Insert plates at density of ˜175,000-245,000 cells/cm^2 (25000-35000 cells/well; 50 μL/well) in DMEM medium and incubated for 3-4 days at 37° C.-5% CO2. Medium was changed a day before the experiment.
Stock solutions of test items were prepared in DMSO at a concentration of 5 or 10 mM and stored at −20° C. until use. The potent P-gp inhibitor, GF120918 (stock solution 10 mM) and the reference controls digoxin, atenolol, metoprolol (stock solutions 3 or 10 mM) were prepared in DMSO and stored at −20° C. until use.
Donor working solutions of test items and reference controls will be prepared at a concentration of 10 or 25 μM, diluting the stock solutions in HBSSH. Receiver working solutions contained transport buffer only. […]
MDCKII and MDCKII-MDR1 cells were preincubated (37° C., 15 to 30 minutes) in receiver working solutions containing transport buffer on apical (A) and basolateral (B) sides. Following pre-incubation, test items and control items (digoxin) transport were measured in two directions (apical to basolateral [AB]) and basolateral to apical [BA]), and these directions were performed in triplicate sets of wells, in both the absence and presence of […] GF120918 or mock MDCKII cells. […] Transport of permeability reference controls, atenolol and metoprolol, were measured in one direction (apical to basolateral [AB]) (n=3). […]

CNC(C)Cc1ccc2c(c1)OCO2 (stereo not shown) [MDMA, reference compound]
Permeability Classification: high permeability
